From patent US20110301170A1, “Inhibitors of JNK” (priority 2010, published 2011)
Where a name gives a salt, the structure may show the parent alone.

tested on: T1, JNK; test: JNK Assay in vitro (phosphorylation of GST-ATF2 with [γ-33P] ATP); assay type: biochemical, Human; details: IC50 affinity values; JNK isoform (JNK1α1, JNK2α2 or JNK3) not stated; Km concentrations of ATP and substrate; 30° C. for 30 min
T1 construct: Human JNK2α2 assay contains 1 nM enzyme; Human JNK1α1 assay contains 2 nM enzyme
Description: JNK activity was measured by phosphorylation of GST-ATF2 (19-96) with [-^33P] ATP. […] Human JNK2α2 assay contains 1 nM enzyme, 1 μM ATF2, 8 μM ATP with 1 uCi [γ-^33P] ATP. Human JNK1α1 assay contains 2 nM enzyme, 1 μM ATF2, 6 μM ATP with 1 μCi [γ-^33P] ATP. Human JNK3 (Upstate Biotech #14-501M) assay contains 2 nM enzyme, 1 μM ATF2, 4 μM ATP with 1 μCi [γ-^33P] ATP. The enzyme assay was carried out in the presence or absence of several compound concentrations. JNK and compound were pre-incubated for 10 min., followed by initiation of the enzymatic reaction by adding ATP and the substrate. The reaction mixture was incubated at 30° C. for 30 min. At the end of incubation, the reaction was terminated by transferring 25 μl of the reaction mixture to 150 μl of 10% glutathione Sepharose® slurry (Amersham #27-4574-01) containing 135 mM EDTA. The reaction product was captured on the affinity resin, and washed on a filtration plate (Millipore, MABVNOB50) with phosphate buffered saline for six times to remove free radionucleotide. The incorporation of ^33P into ATF2 was quantified on a microplate scintillation counter (Packard Topcount). Compound inhibition potency on JNK was measured by IC50 value generated from ten concentration inhibition curves fitted into the 3-parameter model: % inhibition=Maximum/(1+(IC50/[Inhibitor])^slope). Data were analyzed on Microsoft Excel for parameter estimation.

Row | IC50 | Compound
1 | 49 nM | CC(C)(O)c1cccc2c1nnn2-c1ccnc(N[C@H]2CC[C@H](C(=O)N3CCn4cnnc4C3)CC2)n1 [Compound 38, (5,6-Dihydro-8H-[1,2,4]triazolo[4,3-a]pyrazin-7-yl)-(4-{4-[4-(1-hydroxy-1-methyl-ethyl)-benzotriazol-1-yl]-pyrimidin-2-ylamino}-cyclohexyl)-methanone]
2 | 31 nM | Cc1nnc2n1CCN(C(=O)[C@H]1CC[C@H](Nc3nccc(-n4nnc5c(C(C)(C)O)cccc54)n3)CC1)C2 [Compound 39, (4-{4-[4-(1-Hydroxy-1-methyl-ethyl)-benzotriazol-1-yl]-pyrimidin-2-ylamino}-cyclohexyl)-(3-methyl-5,6-dihydro-8H-[1,2,4]triazolo[4,3-a]pyrazin-7-yl)-methanone]
3 | 52 nM | Cc1cnc2n1CCN(C(=O)[C@H]1CC[C@H](Nc3nccc(-n4nnc5c(C(C)(C)O)cccc54)n3)CC1)C2 [Compound 41, (4-{4-[4-(1-Hydroxy-1-methyl-ethyl)-benzotriazol-1-yl]-pyrimidin-2-ylamino}-cyclohexyl)-(3-methyl-5,6-dihydro-8H-imidazo[1,2-a]pyrazin-7-yl)-methanone]
4 | 205 nM | O=C([C@H]1CC[C@H](Nc2nccc(-c3cnc4c(C(F)(F)F)cccn34)n2)CC1)N1CCn2cnnc2C1 [Compound 42, (5,6-Dihydro-8H-[1,2,4]triazolo[4,3-a]pyrazin-7-yl)-{4-[4-(8-trifluoromethyl-imidazo[1,2-a]pyridin-3-yl)-pyrimidin-2-ylamino]-cyclohexyl}-methanon]
5 | 234 nM | Cc1nnc2n1CCN(C(=O)[C@H]1CC[C@H](Nc3nccc(-c4cnc5c(C(F)(F)F)cccn45)n3)CC1)C2 [Compound 43, (3-Methyl-5,6-dihydro-8H-[1,2,4]triazolo[4,3-a]pyrazin-7-yl)-{4-[4-(8-trifluoromethyl-imidazo[1,2-a]pyridin-3-yl)-pyrimidin-2-ylamino]-cyclohexyl}-methanone]

Further lines, the compound ahead of its results:

Row | Compound | IC50
6 | Cc1cccc2c1nnn2-c1ccnc(N[C@H]2CC[C@H](C(=O)N3CCn4cnnc4C3)CC2)n1 [Compound 34, (5,6-Dihydro-8H-[1,2,4]triazolo[4,3-a]pyrazin-7-yl)-{4-[4-(4-methyl-benzotriazol-1-yl)-pyrimidin-2-ylamino]-cyclohexyl}-methanone] | 59 nM
7 | Cc1cccc2c1nnn2-c1ccnc(N[C@H]2CC[C@H](C(=O)N3CCn4c(C)nnc4C3)CC2)n1 [Compound 35, {4-[4-(4-Methyl-benzotriazol-1-yl)-pyrimidin-2-ylamino]-cyclohexyl}-(3-methyl-5,6-dihydro-8H-[1,2,4]triazolo[4,3-a]pyrazin-7-yl)-methanone] | 38 nM
8 | O=C([C@H]1CC[C@@H](Nc2nccc(-n3nnc4c(C(F)(F)F)cccc43)n2)CC1)N1CCn2cnnc2C1 [Compound 37, (5,6-Dihydro-8H-[1,2,4]triazolo[4,3-a]pyrazin-7-yl)-{4-[4-(4-trifluoromethyl-benzotriazol-1-yl)-pyrimidin-2-ylamino]-cyclohexyl}-methanone] | 180 nM

tested on: not given; test: not given; details: not given

Row | melting point | Compound
9 | 200 to 210 °C | O=C([C@H]1CC[C@@H](Nc2nccc(-n3nnc4c(C(F)(F)F)cccc43)n2)CC1)N1CCn2cnnc2C1 (as salt: HCl) [Compound 37, (5,6-Dihydro-8H-[1,2,4]triazolo[4,3-a]pyrazin-7-yl)-{4-[4-(4-trifluoromethyl-benzotriazol-1-yl)-pyrimidin-2-ylamino]-cyclohexyl}-methanone]
10 | 180 to 200 °C | CC(C)(O)c1cccc2c1nnn2-c1ccnc(N[C@H]2CC[C@H](C(=O)N3CCn4cnnc4C3)CC2)n1 (as salt: HCl) [Compound 38, (5,6-Dihydro-8H-[1,2,4]triazolo[4,3-a]pyrazin-7-yl)-(4-{4-[4-(1-hydroxy-1-methyl-ethyl)-benzotriazol-1-yl]-pyrimidin-2-ylamino}-cyclohexyl)-methanone]
11 | 145 to 150 °C | Cc1nnc2n1CCN(C(=O)[C@H]1CC[C@H](Nc3nccc(-n4nnc5c(C(C)(C)O)cccc54)n3)CC1)C2 (as salt: HCl) [Compound 39, (4-{4-[4-(1-Hydroxy-1-methyl-ethyl)-benzotriazol-1-yl]-pyrimidin-2-ylamino}-cyclohexyl)-(3-methyl-5,6-dihydro-8H-[1,2,4]triazolo[4,3-a]pyrazin-7-yl)-methanone]
12 | 185 to 190 °C | O=C([C@H]1CC[C@H](Nc2nccc(-n3nnc4c(OC(F)F)cccc43)n2)CC1)N1CCn2cnnc2C1 (as salt: HCl) [Compound 44, {4-[4-(4-Dilfuoromethoxy-benzotriazol-1-yl)-pyrimidin-2-ylamino]-cyclohexyl}-(5,6-dihydro-8H-[1,2,4]triazolo[4,3-a]pyrazin-7-yl)-methanone]

Second part, the compound before the results:

Row | Compound | melting point
13 | C=C(C)c1cccc2c1ccn2-c1ccnc(N[C@H]2CC[C@H](C(=O)N3CCn4c(C)cnc4C3)CC2)n1 (as salt: HCl) [Compound 10, {4-[4-(4-Isopropenyl-indol-1-yl)-pyrimidin-2-ylamino]-cyclohexyl}-(3-methyl-5,6-dihydro-8H-imidazo[1,2-a]pyrazin-7-yl)-methanone] | 220 to 224.9 °C
14 | Cc1cnc2n1CCN(C(=O)[C@H]1CC[C@H](Nc3nccc(-n4ccc5c(OC(F)F)cccc54)n3)CC1)C2 (as salt: HCl) [Compound 11, {4-[4-(4-Difluoromethoxy-indol-1-yl)-pyrimidin-2-ylamino]-cyclohexyl}-(3-methyl-5,6-dihydro-8H-imidazo[1,2-a]pyrazin-7-yl)-methanone] | 190 to 195 °C
15 | Cc1nnc2n1CCN(C(=O)[C@H]1CC[C@H](Nc3nccc(-n4ccc5c(OCCCS(C)(=O)=O)cccc54)n3)CC1)C2 (as salt: HCl) [Compound 23, (4-{4-[4-(3-Methanesulfonyl-propoxy)-indol-1-yl]-pyrimidin-2-ylamino}-cyclohexyl)-(3-methyl-5,6-dihydro-8H-[1,2,4]triazolo[4,3-a]pyrazin-7-yl)-methanone] | 178 to 180 °C
16 | O=C([C@H]1CC[C@H](Nc2nccc(-n3ccc4c(OCC5CCS(=O)(=O)C5)cccc43)n2)CC1)N1CCn2cnnc2C1 (some centres unmarked) (as salt: HCl) [Compound 24, (5,6-Dihydro-8H-[1,2,4]triazolo[4,3-a]pyrazin-7-yl)-(4-{4-[4-(1,1-dioxo-tetrahydro-1λ6-thiophen-3-ylmethoxy)-indol-1-yl]-pyrimidin-2-ylamino}-cyclohexyl)-methanone] | 215 to 220 °C
17 | C=C(C)c1cccc2c1ccn2-c1ccnc(N[C@H]2CC[C@H](C(=O)N3CCn4cnnc4C3)CC2)n1 (as salt: HCl) [Compound 25, (5,6-Dihydro-8H-[1,2,4]triazolo[4,3-a]pyrazin-7-yl)-{4-[4-(4-isopropenyl-indol-1-yl)-pyrimidin-2-ylamino]-cyclohexyl}-methanone] | 186 to 188 °C
18 | C=C(C)c1cccc2c1ccn2-c1ccnc(N[C@H]2CC[C@H](C(=O)N3CCn4c(C)nnc4C3)CC2)n1 (as salt: HCl) [Compound 26, {4-[4-(4-Isopropenyl-indol-1-yl)-pyrimidin-2-ylamino]-cyclohexyl}-(3-methyl-5,6-dihydro-8H-[1,2,4]triazolo[4,3-a]pyrazin-7-yl)-methanone] | 216.6 to 221 °C
19 | O=C([C@H]1CC[C@H](Nc2nccc(-n3ccc4c(OC(F)F)cccc43)n2)CC1)N1CCn2cnnc2C1 (as salt: HCl) [Compound 27, {4-[4-(4-Difluoromethoxy-indol-1-yl)-pyrimidin-2-ylamino]-cyclohexyl}-(5,6-dihydro-8H-[1,2,4]triazolo[4,3-a]pyrazin-7-yl)-methanone] | 175 to 178 °C
20 | Cc1nnc2n1CCN(C(=O)[C@H]1CC[C@H](Nc3nccc(-n4ccc5c(OC(F)F)cccc54)n3)CC1)C2 (as salt: HCl) [Compound 28, {4-[4-(4-Difluoromethoxy-indol-1-yl)-pyrimidin-2-ylamino]-cyclohexyl}-(3-methyl-5,6-dihydro-8H-[1,2,4]triazolo[4,3-a]pyrazin-7-yl)-methanone] | 205 to 210 °C
21 | Cc1cccc2c1nnn2-c1ccnc(N[C@H]2CC[C@H](C(=O)N3CCn4cc(C(F)(F)F)nc4C3)CC2)n1 (as salt: HCl) [Compound 33, {4-[4-(4-Methyl-benzotriazol-1-yl)-pyrimidin-2-ylamino]-cyclohexyl}-(2-trifluoromethyl-5,6-dihydro-8H-imidazo[1,2-a]pyrazin-7-yl)-methanone] | 258 to 260 °C
22 | Cc1cccc2c1nnn2-c1ccnc(N[C@H]2CC[C@H](C(=O)N3CCn4cnnc4C3)CC2)n1 (as salt: HCl) [Compound 34, (5,6-Dihydro-8H-[1,2,4]triazolo[4,3-a]pyrazin-7-yl)-{4-[4-(4-methyl-benzotriazol-1-yl)-pyrimidin-2-ylamino]-cyclohexyl}-methanone] | 236 to 238 °C
23 | Cc1cccc2c1nnn2-c1ccnc(N[C@H]2CC[C@H](C(=O)N3CCn4c(C)nnc4C3)CC2)n1 (as salt: HCl) [Compound 35, {4-[4-(4-Methyl-benzotriazol-1-yl)-pyrimidin-2-ylamino]-cyclohexyl}-(3-methyl-5,6-dihydro-8H-[1,2,4]triazolo[4,3-a]pyrazin-7-yl)-methanone] | 246 to 248 °C
